These results are taken from US11117892B2, “Pyrrolo-pyridine derivative compound, method for preparing same, and pharmaceutical composition containing same as active ingredient for prevention or treatment of protein kinase-related diseases” (DAEGU-GYEONGBUK MEDICAL INNOVATION FOUNDATION, priority 2017, dated 2021).

Structures are written as SMILES.

For one assay, the target named is CDK5 (Homo sapiens (Human), UniProt Q00535). The assay is described as follows: scanMAX Kinase assay panel. The format is binding. Conditions: read-out: % control. Put shortly:
(§1)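 Selectivity was measured on the scanMAX platform. The compound signal minus the positive-control signal was divided by the DMSO-minus-positive-control window and multiplied by 100.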

In another assay the target is CLK1 (Homo sapiens (Human), UniProt P49759). The assay is described as follows: scanMAX Kinase assay panel. The format is binding. The following applies: read-out: % control. Put shortly:
as §1

In another assay the target is CLK2 (Homo sapiens (Human), UniProt P49760). The assay is described as follows: scanMAX Kinase assay panel. The class given is binding. Conditions: read-out: % control. Put shortly:
as §1

The target of another assay is CLK3 (Homo sapiens (Human), UniProt P49761). Put plainly: scanMAX Kinase assay panel. Conditions: read-out: % control. The class given is binding. Put shortly:
as §1

The target in the next assay is CLK4 (Homo sapiens (Human), UniProt Q9HAZ1). The assay is described as follows: scanMAX Kinase assay panel. The format is binding. The following applies: read-out: % control. Put shortly: as §1
Sequence of CLK4 (Q9HAZ1 whole entry): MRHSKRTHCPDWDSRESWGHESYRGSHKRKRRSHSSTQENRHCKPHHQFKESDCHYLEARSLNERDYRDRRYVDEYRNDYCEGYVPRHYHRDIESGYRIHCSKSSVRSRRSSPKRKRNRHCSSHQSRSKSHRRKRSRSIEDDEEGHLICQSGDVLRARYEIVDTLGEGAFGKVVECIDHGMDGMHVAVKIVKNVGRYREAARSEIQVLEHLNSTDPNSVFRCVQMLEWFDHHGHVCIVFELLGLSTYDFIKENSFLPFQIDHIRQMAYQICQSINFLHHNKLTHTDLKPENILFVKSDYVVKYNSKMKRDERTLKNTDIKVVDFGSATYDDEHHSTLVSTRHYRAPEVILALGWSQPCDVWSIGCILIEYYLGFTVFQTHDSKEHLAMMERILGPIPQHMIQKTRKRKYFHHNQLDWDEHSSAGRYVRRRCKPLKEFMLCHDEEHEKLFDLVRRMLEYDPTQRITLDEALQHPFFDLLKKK
The next assay concerns the target CSNK1E (Homo sapiens (Human), UniProt P49674). The assay is described as follows: scanMAX Kinase assay panel. The following applies: read-out: % control. The class given is binding. Put shortly:
as §1

For another assay, the target named is DYRK1A (Homo sapiens (Human), UniProt Q13627). The assay is described as follows: scanMAX Kinase assay panel. The class given is binding. The following applies: read-out: % control. Put shortly:
as §1

The next assay concerns the target DYRK1B (Homo sapiens (Human), UniProt Q9Y463). The assay is described as follows: scanMAX Kinase assay panel. The class given is binding. The following applies: read-out: % control. Put shortly:
as §1

Another assay has as its target DYRK2 (Homo sapiens (Human), UniProt Q92630). The assay is described as follows: scanMAX Kinase assay panel. The format is binding. The following applies: read-out: % control. Put shortly:
as §1

For another assay, the target named is GSK3B (Homo sapiens (Human), UniProt P49841). The assay is described as follows: scanMAX Kinase assay panel. The class given is binding. The following applies: read-out: % control. Put shortly:
as §1

Another assay deals with mouse pancreatic β-cell. The assay is described as follows: mouse pancreatic β-cell proliferation (Ki-67/insulin staining). The class given is cell-based. As to the method: It is known that when human β-cells are treated with harmine that inhibits DYRK1A, the proliferation of β-cells is promoted by increasing the transcription factor activity by inhibiting the phosphorylation of NFAT known as a phosphorylation substrate of DYRK1A.
Particularly, pancreatic Langerhans islet tissues were extracted from the mouse at 8 weeks old, followed by culture in RPMI1640 medium supplemented with 10% FCS (fetal calves serum), 5.5 mM glucose and 1% penicillin-streptomycin for 24 hours.
Next, in order to separate β-cells as single cells from the Langerhans islet, cells were washed twice with PBS, followed by centrifugation. The collected cells were left in the medium supplemented with 1 mg/ml of trypsin for 10 minutes at 37° C. The cells were shaken using a pipette every 10 seconds for 5 minutes. Trypsin reaction was terminated by adding RPMI1640 containing 10% FCS (fetal calves serum), 5.5 mM glucose and 1% penicillin-streptomycin, followed by centrifugation to collect single cells.
Then, the single cells were loaded on the laminin-coated cover glass and stabilized for 24 hours. The cells were cultured in the medium containing the compound of the present invention for 72 hours. […] The cells double-stained with Ki-67/insulin were counted under Olympus F-1000 confocal fluorescence microscope to investigate cell proliferation.

The test system of assay [1] is 5× FAD mice. Put plainly: Tau phosphorylation (AT180 immunohistochemistry) in Alzheimer's disease animal model. The format is in vivo. The following applies: 20 mg/kg i.p. every day for 2 weeks, vs vehicle. As to the method: 2 weeks later, immunohistochemistry was performed using AT180, one of Tau phosphorylation antibodies, and as a result confocal microscope images were obtained. Quantitative analysis with the images was performed using image j software.

The test system of assay [2] is 5× FAD mice. Put plainly: Y-maze behavioral test, short term cognitive function. Conditions: 20 mg/kg i.p. every day for 2 weeks, vs non-treated group. The format is in vivo. As to the method: Then, the mice were placed in Y-maze composed of three arms abutting 120°, and each arm was lifted sequentially for five minutes to calculate the number of alternation triplets to see how well the mice remembered where they visited.
The equipment used for Y-maze test is composed of three arms. The length of each arm was 42 cm, the width thereof was 3 cm and the height was 12 cm. The angle of contact between the three arms is 120°. All experimental devices were made of black polyvinyl plastic. Each arm was assigned with A, B and C. A test mouse was carefully located in one arm and let move freely for 8 minutes. Then, the arm which the test mouse entered was recorded. At this time, the ‘enter’ means the case when the mouse tail was completely in. If the mouse entered an arm where it had already visited, the case was also recorded. If the mouse entered three different arms one by one (actual alternation), one point was given. Alternation behavior was defined by that the mouse entered three different arms stepwise, which was calculated by the following equation. […] [alternation behavior (%)=actual alternation/*maximum alternation×100]
*maximum alternation: total entries−2

In assay [3] the test system is 5× FAD mice. The assay is described as follows: novel object recognition test, long term cognitive function. The format is in vivo. The following applies: 20 mg/kg i.p. every day for 2 weeks, vs non-treated group. As to the method: Novel object recognition test is an experiment to test the memory of perception of an object. Mice were let to see two identical objects. After a certain period of time had passed (several hours˜a week), the mice were let to see a novel object together with the object previously presented. Then, how much those mice were interested in the novel object and studied it was evaluated, leading to the evaluation of long term memory of the previous object.
Two objects which were the same in the shape and in the size (F, F) were placed in a specific corner of the open field box (42×42×42 cm) made that the outside is not invisible from the inside, and a test mouse was started from the center of the box. Then, the number and time of the test mouse touching those two objects were recorded for 5 minutes (Acquisition). 24 hours later, one of those two objects was replaced with a new one (F, N). The number and time of access to the original object (F) and the new object (N) were recorded and digitized (Discrimination). Preference for the object (p) was calculated by (time to approach to a certain object)/(total time to approach to two objects). FIG. 10(a) presents the schematic diagram of novel object recognition test, and FIG. 10(b) presents the calculation results.

Sequence of CDK5 (Q00535 whole entry): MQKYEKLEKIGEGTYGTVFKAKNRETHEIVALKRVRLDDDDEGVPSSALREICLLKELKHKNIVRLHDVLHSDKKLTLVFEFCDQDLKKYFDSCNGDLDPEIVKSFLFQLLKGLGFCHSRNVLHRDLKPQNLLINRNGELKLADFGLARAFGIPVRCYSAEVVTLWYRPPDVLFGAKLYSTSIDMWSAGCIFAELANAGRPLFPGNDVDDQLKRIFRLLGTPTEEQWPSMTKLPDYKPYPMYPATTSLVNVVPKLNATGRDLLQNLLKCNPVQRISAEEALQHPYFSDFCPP
Sequence of CLK2 (P49760 whole entry): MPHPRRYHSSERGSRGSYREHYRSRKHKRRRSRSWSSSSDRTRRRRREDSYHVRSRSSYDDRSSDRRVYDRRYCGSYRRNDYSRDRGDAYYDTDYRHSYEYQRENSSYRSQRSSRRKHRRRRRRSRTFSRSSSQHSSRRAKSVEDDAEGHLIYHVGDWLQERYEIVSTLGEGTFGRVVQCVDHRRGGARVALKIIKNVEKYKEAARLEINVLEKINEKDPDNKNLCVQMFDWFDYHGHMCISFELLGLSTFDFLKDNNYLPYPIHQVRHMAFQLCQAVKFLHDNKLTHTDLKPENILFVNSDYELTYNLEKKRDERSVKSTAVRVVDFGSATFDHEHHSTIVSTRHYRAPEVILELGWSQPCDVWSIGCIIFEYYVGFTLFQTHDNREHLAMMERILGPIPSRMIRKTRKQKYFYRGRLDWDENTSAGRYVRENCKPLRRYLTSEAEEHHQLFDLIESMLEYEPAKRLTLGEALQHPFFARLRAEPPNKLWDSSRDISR
Sequence of CSNK1E (P49674 whole entry): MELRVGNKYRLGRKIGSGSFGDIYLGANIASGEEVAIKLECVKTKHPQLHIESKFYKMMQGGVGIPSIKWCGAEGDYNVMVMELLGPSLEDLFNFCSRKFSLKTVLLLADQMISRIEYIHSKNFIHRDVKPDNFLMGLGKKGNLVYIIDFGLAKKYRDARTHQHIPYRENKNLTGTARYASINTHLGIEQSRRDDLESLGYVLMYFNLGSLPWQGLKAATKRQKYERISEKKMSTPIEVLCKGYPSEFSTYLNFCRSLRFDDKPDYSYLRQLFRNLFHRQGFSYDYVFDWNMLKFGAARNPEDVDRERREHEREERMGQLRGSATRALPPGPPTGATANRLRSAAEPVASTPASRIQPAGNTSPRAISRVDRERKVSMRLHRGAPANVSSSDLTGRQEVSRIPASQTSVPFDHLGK
Sequence of CLK3 (P49761 whole entry): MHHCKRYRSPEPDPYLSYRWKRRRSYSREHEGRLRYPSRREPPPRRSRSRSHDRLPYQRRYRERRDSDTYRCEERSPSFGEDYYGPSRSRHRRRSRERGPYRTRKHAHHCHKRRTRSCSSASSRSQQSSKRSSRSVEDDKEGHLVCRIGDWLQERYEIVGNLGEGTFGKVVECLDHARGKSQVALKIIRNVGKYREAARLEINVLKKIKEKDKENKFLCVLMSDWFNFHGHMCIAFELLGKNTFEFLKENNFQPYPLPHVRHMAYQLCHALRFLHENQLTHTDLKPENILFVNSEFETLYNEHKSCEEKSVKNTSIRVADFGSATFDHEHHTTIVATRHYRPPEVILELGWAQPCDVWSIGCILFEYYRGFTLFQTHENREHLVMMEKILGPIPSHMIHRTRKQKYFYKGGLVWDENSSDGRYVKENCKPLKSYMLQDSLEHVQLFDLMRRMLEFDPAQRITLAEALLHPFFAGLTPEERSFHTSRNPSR
Sequence of DYRK1B (Q9Y463 whole entry): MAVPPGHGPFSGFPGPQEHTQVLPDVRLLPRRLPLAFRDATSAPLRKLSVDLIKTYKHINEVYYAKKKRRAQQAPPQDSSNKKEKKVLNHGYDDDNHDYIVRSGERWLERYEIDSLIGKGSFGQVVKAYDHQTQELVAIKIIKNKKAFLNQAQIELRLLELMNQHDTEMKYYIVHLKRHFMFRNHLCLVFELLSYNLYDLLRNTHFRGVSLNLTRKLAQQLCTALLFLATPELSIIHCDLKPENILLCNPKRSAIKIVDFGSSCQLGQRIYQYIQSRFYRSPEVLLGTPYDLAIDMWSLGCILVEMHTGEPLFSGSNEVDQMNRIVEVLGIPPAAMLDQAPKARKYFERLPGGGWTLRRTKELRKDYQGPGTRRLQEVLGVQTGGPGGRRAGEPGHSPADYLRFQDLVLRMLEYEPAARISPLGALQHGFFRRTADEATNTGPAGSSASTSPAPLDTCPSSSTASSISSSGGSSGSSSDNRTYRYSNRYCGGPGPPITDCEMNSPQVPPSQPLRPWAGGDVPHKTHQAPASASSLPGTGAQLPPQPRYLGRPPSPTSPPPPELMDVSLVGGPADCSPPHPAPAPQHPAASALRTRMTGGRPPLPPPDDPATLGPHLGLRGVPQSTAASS
Sequence of DYRK2 (Q92630 whole entry): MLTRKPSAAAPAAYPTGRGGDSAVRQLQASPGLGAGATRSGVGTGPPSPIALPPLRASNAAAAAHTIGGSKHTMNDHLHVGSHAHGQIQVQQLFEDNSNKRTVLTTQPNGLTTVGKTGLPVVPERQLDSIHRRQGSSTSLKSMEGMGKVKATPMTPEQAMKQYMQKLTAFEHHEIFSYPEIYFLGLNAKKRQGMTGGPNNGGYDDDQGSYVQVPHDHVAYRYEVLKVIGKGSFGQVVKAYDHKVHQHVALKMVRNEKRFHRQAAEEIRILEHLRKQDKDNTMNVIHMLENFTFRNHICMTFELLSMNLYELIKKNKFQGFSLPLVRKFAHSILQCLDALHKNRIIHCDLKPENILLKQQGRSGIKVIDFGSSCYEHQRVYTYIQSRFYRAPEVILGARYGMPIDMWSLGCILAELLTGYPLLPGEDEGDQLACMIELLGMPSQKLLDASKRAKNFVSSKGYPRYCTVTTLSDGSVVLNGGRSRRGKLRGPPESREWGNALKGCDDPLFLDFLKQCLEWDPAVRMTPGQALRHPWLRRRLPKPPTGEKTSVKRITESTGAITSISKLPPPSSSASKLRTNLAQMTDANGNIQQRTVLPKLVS
Sequence of GSK3B (P49841 whole entry): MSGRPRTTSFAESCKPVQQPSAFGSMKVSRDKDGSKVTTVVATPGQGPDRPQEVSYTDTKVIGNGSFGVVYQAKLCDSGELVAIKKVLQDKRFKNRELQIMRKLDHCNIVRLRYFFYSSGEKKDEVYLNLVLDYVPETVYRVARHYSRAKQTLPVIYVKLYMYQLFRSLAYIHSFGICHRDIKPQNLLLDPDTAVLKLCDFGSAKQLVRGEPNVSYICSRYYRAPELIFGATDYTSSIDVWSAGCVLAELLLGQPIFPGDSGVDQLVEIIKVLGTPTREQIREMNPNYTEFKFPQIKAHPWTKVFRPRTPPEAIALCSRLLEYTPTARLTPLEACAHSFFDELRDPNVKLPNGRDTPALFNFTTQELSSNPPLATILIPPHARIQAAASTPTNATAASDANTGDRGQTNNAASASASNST
Sequence of CLK1 (P49759 whole entry): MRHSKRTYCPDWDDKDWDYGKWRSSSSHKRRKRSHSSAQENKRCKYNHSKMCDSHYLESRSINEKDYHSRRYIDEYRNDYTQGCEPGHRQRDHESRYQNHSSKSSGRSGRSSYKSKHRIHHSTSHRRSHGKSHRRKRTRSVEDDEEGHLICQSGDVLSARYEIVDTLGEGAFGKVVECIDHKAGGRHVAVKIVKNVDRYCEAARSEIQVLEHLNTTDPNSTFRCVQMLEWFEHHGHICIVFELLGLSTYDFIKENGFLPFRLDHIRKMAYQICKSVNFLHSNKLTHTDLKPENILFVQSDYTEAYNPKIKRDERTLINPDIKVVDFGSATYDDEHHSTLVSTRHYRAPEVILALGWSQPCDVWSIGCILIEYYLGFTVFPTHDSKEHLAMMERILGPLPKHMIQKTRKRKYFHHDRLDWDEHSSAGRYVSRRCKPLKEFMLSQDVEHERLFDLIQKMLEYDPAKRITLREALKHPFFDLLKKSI

`CCNc1cc(Nc2ccc(C(=O)N3CCC(N4CCOCC4)CC3)cc2OC)nc2[nH]cc(C#N)c12` [Example 18, 4-(ethylamino)-6-((2-methoxy-4-(4-morpholinopiperidine-1-carbonyl)phenyl)amino)-1H-pyrrolo[2,3-b]pyridine-3-carbonitrile]: the remaining binding at 1 µM was 100% at CDK5; 1.9% on CLK1; 8.5% at CLK2; 73% at CLK3; 4% on CLK4; 0.6% at CSNK1E. Besides, the remaining binding at 1 µM on DYRK1A was determined as 2%; at DYRK1B, 4%; on DYRK2, 14%; on GSK3B, 97%.
Regarding `CCNc1cc(Nc2ccc(C(=O)N3CCC(N4CCOCC4)CC3)cc2OC)nc2[nH]cc(C(F)(F)F)c12` [Example 57, (4-((4-(ethylamino)-3-(trifluoromethyl)-1H-pyrrolo[2,3-b]pyridin-6-yl)amino)-3-methoxyphenyl) (4-morpholinopiperidin-1-yl)methanone], the “increase of the cell number” value in the assay with mouse pancreatic β-cell (Ki-67/insulin double-stained cells, 72 hours) is recorded as 5 times. The cell proliferation entry in the assay with mouse pancreatic β-cell (mouse pancreatic β-cells cultured with compound for 72 hours) is “active”. In the assay on 5× FAD mice [1], the “immunoreactivity of AT180 in the cerebral cortex region” value is listed as “no significant change” and the “immunoreactivity of AT180 in the hippocampus” value is “significantly reduced”. Moreover, the “short term memory (Y-maze alternation behavior)” value in the assay with 5× FAD mice [2] was “improved short term memory”. Besides, in the assay with 5× FAD mice [3], the “long term memory (preference for the new object)” value is “improved long term memory”.
